Test results published in patent publication US20160052985A1, “THYMIC STROMAL LYMPHOPOIETIN FRAGMENTS AND USES THEREOF” (IEO - ISTITUTO EUROPEO DI ONCOLOGIA SRL, priority 2013, published 2016).

Experiments:
[1] = tested on: HaCaT cells; experiment: qPCR of TSLP isoform mRNA in challenged HaCaT keratinocytes; assay type: cell-based, human; details: 24 hours challenge
Description: RNA was extracted using the RNeasy Micro Kit (Qiagen). RNA was reverse transcribed with oligo(dT) and ImProm-II™ Reverse Transcriptase (Promega). Quantitative real-time PCRs were performed with Fast SYBR Green PCR kit on the Applied Biosystems 7900HT Fast RT-PCR System (Applied Biosystems). Results were quantified using the 2-DCt method (Livak and Schmittgen, Methods, 2001). Gene expression was normalized to the expression of the housekeeping gene, gapdh.
Caco2 cells were cultured in DMEM supplemented with 10% FBS, 1% Glutamine, 1% non-essential aminoacids, 1% Penicillin-Streptomycin. HaCaT cells were cultured in DMEM supplemented with 10% FBS, 1% Glutamine, 1% Penicillin-Streptomycin. For growth on transwell inserts (Corning), 2×10^5 caco2 cells were seeded on 6 mm^2 transwells and grown for 10-12 days, until transepithelial resistance was roughly […]. Cells were infected with bacteria in the absence of antibiotics at a multiplicity of infection of 1:100 for one hour. Then medium was replaced with complete medium containing 100 μg/mL Gentamicin and the cells were cultured for a further 23 hours. HaCaT cells were challenged with calcitriol, an active form of vitamin D, (10 μM, Enzo Life Sciences), or poly(I:C) (1 μg/mL) for 24 hours. At the end of the challenge cells were lysed in Trizol (Ambion, Life Technologies) reagent for RNA extraction or RIPA buffer for protein extraction.

[2] = tested on: peripheral blood mononuclear cells (PBMC); experiment: bidirectional allogenic mixed lymphocyte reaction (MLR), IFNgamma by ELISA; assay type: cell-based, human; details: PBMC from two donors 1:1, increasing doses, 5 days
Excerpt: Buffy coats were obtained from healthy donors (Abbiategrasso hospital, Italy) with informed consent for research use. Peripheral blood mononuclear cells (PBMC) were separated with Ficoll (GE Healthcare) gradient centrifugation and then resuspended and cultured in RPMI 1640 medium (Lonza) containing 10% fetal bovine serum (Gibco), 1% Glutamine 1% pyruvate, 1% non essential AA and 1% Penicillin-Streptomycin. PBMC from two different donors were co-cultured (1:1) in presence of long and short TSLP at different concentrations. After 5 days supernatants were collected and IFNgamma levels were measured by ELISA (R&D systems).

[3] = tested on: C57Bl/6J mice; experiment: LPS-induced endotoxic shock, serum cytokines; assay type: in vivo, mouse; details: for level of inflammatory cytokines in the serum: endotoxin shock model, short TSLP fragments
Description: (§1) Mice were treated intraperitoneally (i.p.) with short TSLP at 50, 100, 200 μg per mouse in 200 μl of injectable water twice, 12 hours and 2 hours, before LPS administration (n=8 per group). Control mice received water. LPS (E. coli serotype 026:B6; Sigma-Aldrich) was injected intraperitoneally (i.p.) at 200 μg per mouse in 200 μl of injectable water. After 6 hours mice were euthanized by exsanguination under anesthesia and blood was collected. IFNgamma, IL6 and IL12-p40 levels were detected in the serum by ELISA (R&D Systems), according to manufacturer's instructions.

[4] = tested on: myeloid dendritic cells (mDC); experiment: flow cytometry of STAT5 pY694 in myeloid dendritic cells; assay type: cell-based, human; details: 15 minutes, 3.5 nM, in the absence and in the presence of the short isoform
Description: Control conditions included cells either left unstimulated (negative control) or incubated with sodium pervanadate ([…], positive control, data not shown). At the end of incubation cells were rapidly spun, fixed with BD Cytofix™ Buffer for 15 minutes at 37° C. and permeabilized with BD™ Phosflow Perm Buffer III on ice for 30 minutes, followed by intracellular staining using mouse anti-pSTAT5 (pY694) antibody (45/Stat5, BD Biosciences) or isotype antibody (MOPC-21). Samples were acquired on a BD Cantoll flow cytometer (BD Biosciences) and analyzed with FlowJo software (v8.7, Tree Star).

[5] = tested on: myeloid dendritic cells (mDC); experiment: CCL17 and CCL22 ELISA in supernatants of myeloid DCs; assay type: cell-based, human; details: 24 hours, in the absence and in the presence of the short isoform
Description: (§2) Myeloid BDCA1+ cells were isolated from PBMC using CD1c (BDCA-1)+ Dendritic Cell Isolation Kit (Miltenyi Biotec) according to the manufacturer's instructions. […] Cells were then washed and cocultured with naïve CD4 T cells from a different donor (ratio 1 DC: 5 T). CD4 cells were isolated using naive CD4+ T Cell Isolation Kit II (Miltenyi Biotec) according to the manufacturer's instructions. After 6 days supernatants were collected and cells were restimulated for 4 hours with PMA (phorbol 12-myristate 13-acetate, 50 ng/ml) and ionomycin (1 ug/ml); for the last 3 hours brefeldin A (10 ug/ml) was added to the culture. Intracellular staining for TNF and IFNgamma positive cells was performed afterwards. CCL17, CCL22 and IFNgamma levels were assessed in the supernatant of DC or of the DC-T culture by ELISA (R&D Systems).

[6] = tested on: intestinal mucosa from ulcerative colitis patients; experiment: ex-vivo organ culture of intestinal mucosa from ulcerative colitis patients; parameters: species or system human; details: 100 and 1000 ng/ml
Description: The activity of short TSLP on IBD tissues was assessed directly on human intestinal mucosa. Briefly, IBD mucosa was separated from the submucosa and mounted as described (Tsilingiri K., et al. J Vis Exp. 2013).

[7] = tested on: monocyte-derived dendritic cells; experiment: monocyte-derived DCs conditioned 24 h, then Salmonella challenge; cytokine secretion by cytometric bead assay; assay type: cell-based, human; details: 24 h conditioning, then LPS or bacterial stimulation
Description: (§3) Peripheral CD14^+ monocytes were isolated from PBMC using human CD14^+ microbeads (Miltenyi Biotec) according to the manufacturer's instructions. Cells were then cultivated in complete RPMI 1640 medium in the presence of IL4 (2.5 ng/ml) and GM-CSF (5 ng/ml) (BD Biosciences) for 6 days to obtain monocyte-derived dendritic cells. The percentage and the phenotype of cell subsets were evaluated before and after differentiation by flow cytometry. Dendritic cells were seeded in complete RPMI 1640 medium at 1×10^6/ml in 48-well plates in the presence of short TSLP at different concentrations or culture medium alone. After 24 hours of culture dendritic cells were gently washed and challenged with Salmonella typhimurium FB62 (MOI 1:1) for 1 hour. Bacteria were then washed out and the medium replaced with medium containing 100 μg/ml gentamycin. Cytokine secretion was assessed after 24 hours by cytometric bead assay Flex sets (BD Biosciences). CBA were acquired on a BD Accuri C6 (BD Biosciences) and analyzed with FCAP software (BD Biosciences).

[8] = tested on: monocyte-derived dendritic cells; experiment: FACS analysis of activation status of monocyte derived DCs; assay type: cell-based, human; details: 24 h conditioning; immature and Salmonella treated (mature) DCs
Description: as §3
Cells were stained with monoclonal anti-human fluorescently conjugated antibodies: CD14 (M5E2), CD19 (HIB19), CD11c (B-ly6), CD45RA (HI100), CD3 (UCHT1), TNF (Mab11), IFNg (4S.B3), TNF (Mab11) from BD Biosciences; CD4 (RPA-T4) from Ebioscience; CD1a (HI149) and TSLPR (1B4) from Biolegend.

[9] = tested on: naive CD4 T cells cocultured with mDC; experiment: conditioned myeloid DCs cocultured with naive CD4 T cells; assay type: cell-based, human
Description: as §2

[10] = tested on: tslpr-/- mice; experiment: LPS-induced endotoxic shock in TSLPR knock-out mice; assay type: in vivo, mouse; details: 200 μg i.p.
Description: Female C57Bl/6J mice (8 to 10 weeks of age) were obtained from Charles River Laboratories (Milan, Italy). TSLPR-deficient mice on the C57Bl/6J background were provided by Dr W. J. Leonard (Laboratory of Molecular Immunology, NHLBI, USA). Mice were bred and maintained at IFOM-IEO campus animal facility under specific pathogen-free conditions. All experiments were performed in accordance with the guidelines established in the Principle of Laboratory Animal Care (directive 86/609/EEC).
as §1

[11] = tested on: mice with DSS-induced colitis; experiment: DSS-induced colitis; assay type: in vivo, mouse; details: 3% DSS, 200 μg i.p. every other day
Description: Colitis was induced by adding 3% (w/v) DSS (TdB Consultancy AB, Uppsala, Sweden) to drinking water for 9 days. Mice were treated i.p. with short TSLP (200 μg in 200 μl of injectable water) the day before DSS administration and every other day during the entire study. Mice were monitored daily for weight loss.

[12] = i.p. 12 hours and 2 hours before LPS, 6 hours after LPS, dose-dependent

With `C=C1/C(=C\C=C2/CCC[C@]3(C)[C@@H]([C@H](C)CCCC(C)(C)O)CC[C@@H]23)C[C@@H](O)C[C@@H]1O` [vitamin D, calcitriol] as the molecule, how does the “short TSLP mRNA” value [1] read?
Its value is “significantly upregulated mRNA for short TSLP”.

“C terminal peptide: C terminal fragment of short TSLP, aa 24-63 of SEQ ID NO: 1, mw 4.8 KDa (ATQAMKKRRKRKVTTNKCLEQVSQLQGLWRRFNRPLLKQQ; listed as Homo sapiens)” was tested. Which “IFN-gamma release in MLR” value [2] did it give?
The value was “inhibiting IFNgamma secretion”.

And the “level of inflammatory cytokines in the serum” value [3]?
Its value is “able to reduce the level of inflammatory cytokines in the serum”.

With “N terminal: N terminal fragment of short TSLP, aa 4-40 of SEQ ID NO: 1, mw 4.2 KDa (MKTKAALAIWCPGYSETQINATQAMKKRRKRKVTTNK; listed as Homo sapiens)” as the molecule, how does the “IFN-gamma release in MLR” value [2] read?
The value was “inhibiting IFNgamma secretion”.

And the “level of inflammatory cytokines in the serum” value [3]?
The value was “did not exert any effects”.

How did the “IFN-gamma release in MLR” value [2] turn out when “long TSLP: recombinant human TSLP long isoform, aa. 29-159 of SEQ ID NO: 2, from R&D Systems, or produced in house in baculovirus” was run?
Its value is “increasing the amount of IFN-gamma released”.

And the STATS phosphorylation [4]?
The STATS phosphorylation was “significantly increased”.

And the “secretion of CCL17” value [5]?
Its value is “significantly increased”.

What about the “secretion of CCL22” value [5] of the same molecule?
Its value is “significantly increased”.

What about the “ongoing inflammation in the tissue” value [6] of the same molecule?
The value was “only short TSLP ameliorated the ongoing inflammation”.

For polyI:C, which “long TSLP mRNA” value [1] is on record?
Its value is “upregulated the long isoform”.

How did the “inhibition of the release of IFN-gamma” value [2] turn out when “short TSLP: short TSLP peptide, aa 4-63 of SEQ ID NO: 1, mw 7 KDa, synthesized in house” was run?
The value was 50%.

What about the “capacity to release IL12-p70” value [7] of the same molecule?
Its value is “strongly affected”.

What about the “capacity to release IL-1beta” value [7] of the same molecule?
The value was “strongly affected”.

What about the “capacity to release IL-6” value [7] of the same molecule?
The value was “strongly affected”.

What about the “capacity to release IL-10” value [7] of the same molecule?
The value was “strongly affected”.

What about the “capacity to release TNF-alfa” value [7] of the same molecule?
The value was “strongly affected”.

What about the “expression of maturation markers CD80, CD86 or HLA-DR” value [8] of the same molecule?
Its value is “no change”.

And the “percentage of Th1 cells” value ([9]; conditioned DCs 24 h, 6 days coculture, IFNgamma intracellular staining)?
The value was “reducing the percentage of Th1 cells”.

What about the “IFN-gamma secretion in DC-T coculture” value ([9]; conditioned DCs 24 h, supernatant day 6) of the same molecule?
Its value is “reducing”.

And the “counter effect to long TSLP on myeloid DCs” value ([9]; equimolar ratio with long TSLP)?
Its value is “does not mediate a counter effect to the long isoform”.

And the “IFN-γ in the sera” value [3, 12]?
Its value is “significant decrease”.

And the “IL-6 in the sera” value [3, 12]?
Its value is “significant decrease”.

What about the “IL-12p40 in the sera” value [3, 12] of the same molecule?
The value was “significant decrease”.

What about the “anti-inflammatory effect (serum cytokines) in TSLPR knock-out mice” value [10] of the same molecule?
The value was “also manifested”.

What about the body weight loss [11] of the same molecule?
The body weight loss was “significantly limiting weight loss”.

And the “ongoing inflammation in the tissue” value [6]?
Its value is “ameliorated the ongoing inflammation in the tissue”.

And the “production of mucous by goblet cells” value [6]?
Its value is “restored the production of mucous by goblet cells”.

What about the tissue architecture [6] of the same molecule?
The tissue architecture was “normalized tissue architecture”.
